Publication PMC2990348 (Journal of medicinal chemistry, 2010)

Tested on: poliovirus
Format: cell-based

## Cc1ncnc2c1ncn2[C@@H]1O[C@H](CO)[C@@H](O)[C@H]1O [Compound 2, 6-methyl-9-β-D-ribofuranosylpurine, reference compound]
  Frequency of viral mutagenesis compared to ribavirin: neither 6 nor 2 increased the frequency of viral mutagenesis

## Cc1ncnc2c1ccn2[C@@H]1O[C@H](CO)[C@@H](O)[C@H]1O [Compound 6, 4-Methyl-7-β-D-ribofuranosylpyrrolo[2,3-d]pyrimidine]
  Frequency of viral mutagenesis compared to ribavirin: neither 6 nor 2 increased the frequency of viral mutagenesis
